In brackets after ≈: the same amount, converted by molar mass. Like-named read-outs stand apart in the source and are kept apart here.
Tests used:
[1] = molecular target: T1, MK2 enzyme (Homo sapiens, UniProt P49137); assay: MK2 enzyme activity, IMAP fluorescence polarization assay; format: biochemical
T1 construct: MK2 enzyme (active enzyme (peptide 46-end (Millipore))); purchased Millipore
Source text: In another assay the MK2 kinase activity can be determined by using an IMAP assay (Immobilized Metal Assay for Phosphochemicals—based coupled assay). IMAP is a homogeneous fluorescence polarization (FP) assay based on affinity capture of phosphorylated peptide substrates. IMAP uses fluorescein-labeled peptide substrates that, upon phosphorylation by a protein kinase, bind to so called IMAP nanoparticles, which are derivatized with trivalent metal complexes. […] In such an assay, MK2 phosphorylates a fluorescein-labeled peptide substrate (see example 14).
MK2 enzyme activity is measured using the IMAP (immobilized metal ion affinity-based fluorescence polarization) assay as outlined below.
The enzyme is diluted to 100 U/mL the day before use in KR buffer (10 mM Tris-HCl, 10 mM MgCl2, 0.01% Tween-20, 0.05% NaN3, 2 mM DTT, pH 7.2) and stored overnight at −20° C.
The dilutions in DMSO are then diluted 50-fold in KR-buffer of which 5 μl is used in the assay, leading to a final compound concentration range in the assay from 10 μM to 0.316 nM.
After 60 min incubation at room temperature in the dark the FP signal is read. Fluorescence at 535 nm is measured using parallel and perpendicular filters to determine differences in rotation due to binding of the phosphorylated substrate peptide to the beads. Values are calculated as percentage of the difference in readout (ΔmPi) of the controls with and without ATP. EC50 values are determined by curve fitting of the experimental results using Activity Base.

[2] = Solubility determination of MK2 inhibitors (kinetic aqueous solubility, UPLC); format: physicochemical; conditions: aqueous buffer (system solution from pION inc.), 22 °C, pH 7.4, aqueous buffer, kinetic from dmso stock
Method: The solubility can be determined using the Automated Kinetic Aqueous Solubility (AKASol) method, which is an HPLC-UV based method. The method is derived from the classical saturated shake-flask solubility method which has been adapted to the 96-well microtitre plate format, allowing the use of DMSO stock solutions. The solubility is determined by measuring the amount of compound in a saturated aqueous solution, quantified by an external calibration curve of the compound dissolved in DMSO. The solubility (mg/L) is measured at pH 7.4, at room temperature and the final concentration of DMSO in the sample solution is 1%.
The samples were prepared from 10 mM DMSO stock solutions. For each compound under investigation, a volume (9 μL) of the DMSO stock solution is transferred from the DMSO stock solution into 891 μL of buffer solution (system solution from pION inc.) in a 96 deep well plate, which equates to approximately 1% DMSO, using the Packard Multiprobe II robot liquid handling system. The pH of the buffer is manually adjusted at pH 7.4 by adding NaOH. This procedure is done in duplicate for each sample. After shaking for 24 h on a vortex mixer (Heidolph, Titramax 101) at 450 rpm and at room temperature (21-23° C.), 300 uL of the incubated sample is transferred from the deep well plate to a filter plate (PVDF, 0.45 um) on a vacuum manifold. To the filtrate (150 uL) 1-propanol (50 uL) is added to suppress precipitation and this solution is then analysed by UPLC. The solubility is determined using the calibration line previously prepared.
Preparation of the Standards and Built up of a Calibration Line
The calibration line is built with different concentrations of the test compound (standards), prepared from the same 10 mM DMSO stock solution. A volume (7 uL) from the same DMSO stock solution was diluted with DMSO (273 uL) leading to a solution with concentration of 0.25 mM. From this solution, three different injection volumes (0.2, 1, 1.8 uL) were injected on UPLC. The respective peak areas are plotted against amount of compound to build up the calibration line. The calibration line is used to determine the amount of dissolved compound in each sample, selecting the injection that gave peak areas closest to the peak area range of the calibration standards.

[3] = MK2 IMAP assay, 1 μM ATP, 30 min pre-incubation, 2 h room temperature, read-out: pEC50 value (converted)
[4] = pH 7.4, room temperature, about 1% DMSO, 24 h shaking, read-out: solubility
[5] = Table 2, comparison compound of Formula (XVI), spiro ring without amine, MK2 IMAP assay, read-out: pEC50, Formula (XVI) (converted)

T1 sequence (P49137 46-400 limits assumed): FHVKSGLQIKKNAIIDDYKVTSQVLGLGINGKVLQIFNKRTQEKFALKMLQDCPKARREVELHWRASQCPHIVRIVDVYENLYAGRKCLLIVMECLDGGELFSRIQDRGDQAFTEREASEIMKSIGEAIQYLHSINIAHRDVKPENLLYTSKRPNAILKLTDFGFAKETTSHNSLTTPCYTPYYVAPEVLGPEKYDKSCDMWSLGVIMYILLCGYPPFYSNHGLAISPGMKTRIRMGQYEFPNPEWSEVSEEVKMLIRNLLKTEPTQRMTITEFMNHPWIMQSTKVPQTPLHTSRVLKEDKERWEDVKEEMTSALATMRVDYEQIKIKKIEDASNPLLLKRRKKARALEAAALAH

EC50 [1, 3]	solubility at 24 h [2, 4]	solubility at 24 h ([2]; Table 1, comparison compound of Formula (XV) without spiro ring, pH 7.4, read-out: Solubility pH 7.4 (mg/L), Formula (XV))	EC50 [1]	EC50 [1, 5]	SMILES
≤ 0.00316 µM	20 to 50 mg/L (≈ 53.1 to 133 µM)	–	–	–	Nc1ncc(-c2nccc(-c3cc4c([nH]3)C3(CCNCC3)CNC4=O)n2)cn1 [1—2, 2′-(2′-amino-2,5′-bipyrimidin-4-yl)-5′,6′-dihydrospiro[piperidine-4,7′-pyrrolo[3,2-c]pyridin]-4′(1′H)-one]
0.00316 to 0.0316 µM	20 to 50 mg/L (≈ 51.2 to 128 µM)	–	–	–	COc1cncc(-c2nccc(-c3cc4c([nH]3)C3(CCNCC3)CNC4=O)n2)c1 [1—3, 2′-(2-(5-methoxypyridin-3-yl)pyrimidin-4-yl)-5′,6′-dihydrospiro[piperidine-4,7′-pyrrolo[3,2-c]pyridin]-4′(1′H)-one]
0.00316 to 0.0316 µM	20 to 50 mg/L (≈ 53 to 132 µM)	–	–	–	O=C1NCC2(CCNCC2)c2[nH]c(-c3ccnc(-c4ccccc4F)n3)cc21 [1—4, 2′-(2-(2-fluorophenyl)pyrimidin-4-yl)-5′,6′-dihydrospiro[piperidine-4,7′-pyrrolo[3,2-c]pyridin]-4′(1′H)-one]
0.00316 to 0.0316 µM	20 to 50 mg/L (≈ 53 to 132 µM)	–	–	–	O=C1NCC2(CCNCC2)c2[nH]c(-c3ccnc(-c4cccc(F)c4)n3)cc21 [1—5, 2′-(2-(3-fluorophenyl)pyrimidin-4-yl)-5′,6′-dihydrospiro[piperidine-4,7′-pyrrolo[3,2-c]pyridin]-4′(1′H)-one]
0.00316 to 0.0316 µM	20 to 50 mg/L (≈ 49.8 to 125 µM)	–	–	–	CC(=O)c1ccc(-c2nccc(-c3cc4c([nH]3)C3(CCNCC3)CNC4=O)n2)cc1 [1—6, 2′-(2-(4-acetylphenyl)pyrimidin-4-yl)-5′,6′-dihydrospiro[piperidine-4,7′-pyrrolo[3,2-c]pyridin]-4′(1′H)-one]
0.00316 to 0.0316 µM	20 to 50 mg/L (≈ 49.6 to 124 µM)	–	–	–	O=C1NCC2(CCNCC2)c2[nH]c(-c3ccnc(-c4ccc5c(c4)OCO5)n3)cc21 [1—7, 2′-(2-(benzo[d][1,3]dioxol-5-yl)pyrimidin-4-yl)-5′,6′-dihydrospiro[piperidine-4,7′-pyrrolo[3,2-c]pyridin]-4′(1′H)-one]
0.00316 to 0.0316 µM	≥ 50 mg/L	–	–	–	CC(=O)Nc1ccc(-c2nccc(-c3cc4c([nH]3)C3(CCNCC3)CNC4=O)n2)cn1 [1—8, N-(5-(4-(4′-oxo-1′,4′,5′,6′-tetrahydrospiro[piperidine-4,7′-pyrrolo[3,2-c]pyridine]-2′-yl)pyrimidin-2-yl)pyridin-2-yl)acetamide]
0.00316 to 0.0316 µM	≥ 50 mg/L	–	–	–	CCC(=O)Nc1ccc(-c2nccc(-c3cc4c([nH]3)C3(CCNCC3)CNC4=O)n2)cn1 [1—9, N-(5-(4-(4′-oxo-1′,4′,5′,6′-tetrahydrospiro[piperidine-4,7′-pyrrolo[3,2-c]pyridine]-2′-yl)pyrimidin-2-yl)pyridin-2-yl)propionamide]
0.00316 to 0.0316 µM	≥ 50 mg/L	–	–	–	O=C1NCC2(CCNCC2)c2[nH]c(-c3ccnc(-c4ccc(C(F)(F)F)c(Cl)c4)n3)cc21 [1—10, 2′-(2-(3-chloro-4-(trifluoromethyl)phenyl)pyrimidin-4-yl)-5′,6′-dihydrospiro[piperidine-4,7′-pyrrolo[3,2-c]pyridin]-4′(1′H)-one]
0.00316 to 0.0316 µM	≥ 50 mg/L	–	–	–	O=C1NCC2(CCNCC2)c2[nH]c(-c3ccnc(-c4ccc5c(c4)OCCCO5)n3)cc21 [1—11, 2′-(2-(3,4-dihydro-2H-benzo[b][1,4]dioxepin-7-yl)pyrimidin-4-yl)-5′,6′-dihydrospiro[piperidine-4,7′-pyrrolo[3,2-c]pyridin]-4′(1′H)-one]
0.00316 to 0.0316 µM	20 to 50 mg/L (≈ 45.9 to 115 µM)	–	–	–	O=C1NCC2(CCNCC2)c2[nH]c(-c3ccnc(-c4ccc(-c5ccccc5)cc4)n3)cc21 [1—12, 2′-(2-(biphenyl-4-yl)pyrimidin-4-yl)-5′,6′-dihydrospiro[piperidine-4,7′-pyrrolo[3,2-c]pyridin]-4′(1′H)-one]
0.0316 to 0.316 µM	20 to 50 mg/L (≈ 49.8 to 125 µM)	–	–	–	CC(C)c1cccc(-c2nccc(-c3cc4c([nH]3)C3(CCNCC3)CNC4=O)n2)c1 [1—14, 2′-(2-(3-isopropylphenyl)pyrimidin-4-yl)-5′,6′-dihydrospiro[piperidine-4,7′-pyrrolo[3,2-c]pyridin]-4′(1′H)-one]
0.00316 to 0.0316 µM	≥ 50 mg/L	–	–	–	O=C1NCC2(CCNCC2)c2[nH]c(-c3ccnc(-c4ccc(Oc5ccccc5)cc4)n3)cc21 [1—15, 2′-(2-(4-phenoxyphenyl)pyrimidin-4-yl)-5′,6′-dihydrospiro[piperidine-4,7′-pyrrolo[3,2-c]pyridin]-4′(1′H)-one]
0.00316 to 0.0316 µM	≥ 50 mg/L	–	–	–	O=C1NCC2(CCNCC2)c2[nH]c(-c3ccnc(-c4cccc(OC(F)(F)F)c4)n3)cc21 [1—16, 2′-(2-(3-(trifluoromethoxy)phenyl)pyrimidin-4-yl)-5′,6′-dihydrospiro[piperidine-4,7′-pyrrolo[3,2-c]pyridin]-4′(1′H)-one]
0.00316 to 0.0316 µM	≥ 50 mg/L	–	–	–	O=C1NCC2(CCNCC2)c2[nH]c(-c3ccnc(-c4ccc(C(F)(F)F)cc4)n3)cc21 [1—17, 2′-(2-(4-(trifluoromethyl)phenyl)pyrimidin-4-yl)-5′,6′-dihydrospiro[piperidine-4,7′-pyrrolo[3,2-c]pyridin]-4′(1′H)-one]
0.0316 to 0.316 µM	20 to 50 mg/L (≈ 45.3 to 113 µM)	–	–	–	O=C1NCC2(CCNCC2)c2[nH]c(-c3ccnc(-c4ccc(C5CCCCC5)cc4)n3)cc21 [1—18, 2′-(2-(4-cyclohexylphenyl)pyrimidin-4-yl)-5′,6′-dihydrospiro[piperidine-4,7′-pyrrolo[3,2-c]pyridin]-4′(1′H)-one]
0.0316 to 0.316 µM	≥ 50 mg/L	–	–	–	Cc1cc(-c2nccc(-c3cc4c([nH]3)C3(CCNCC3)CNC4=O)n2)cc(C(C)(C)C)c1 [1—19, 2′-(2-(3-tert-butyl-5-methylphenyl)pyrimidin-4-yl)-5′,6′-dihydrospiro[piperidine-4,7′-pyrrolo[3,2-c]pyridin]-4′(1′H)-one]
0.0316 to 0.316 µM	≥ 50 mg/L	–	–	–	COc1cc(-c2nccc(-c3cc4c([nH]3)C3(CCNCC3)CNC4=O)n2)ccc1O [1—20, 2′-(2-(4-hydroxy-3-methoxyphenyl)pyrimidin-4-yl)-5′,6′-dihydrospiro[piperidine-4,7′-pyrrolo[3,2-c]pyridin]-4′(1′H)-one]
0.00316 to 0.0316 µM	20 to 50 mg/L (≈ 48.7 to 122 µM)	–	–	–	O=C1NCC2(CCNCC2)c2[nH]c(-c3ccnc(-c4cnc5ccccc5c4)n3)cc21 [1—21, 2′-(2-(quinolin-3-yl)pyrimidin-4-yl)-5′,6′-dihydrospiro[piperidine-4,7′-pyrrolo[3,2-c]pyridin]-4′(1′H)-one]
0.00316 to 0.0316 µM	≥ 50 mg/L	–	–	–	CC(C)(C)c1ccc(-c2nccc(-c3cc4c([nH]3)C3(CCNCC3)CNC4=O)n2)cc1 [1—22, 2′-(2-(4-tert-butylphenyl)pyrimidin-4-yl)-5′,6′-dihydrospiro[piperidine-4,7′-pyrrolo[3,2-c]pyridin]-4′(1′H)-one]
–	–	2 mg/L	–	–	O=C1NCCc2[nH]c(-c3ccnc(-c4cnc5ccccc5c4)c3)cc21 [16_1 Formula (XV)]
–	–	–	0.01 µM	–	O=C1NCCc2[nH]c(-c3ccnc(-c4cnc5ccccc5c4)n3)cc21 [16_2 Formula (XV)]
–	–	–	–	0.251 µM	O=C1NCC2(CCCC2)c2[nH]c(-c3ccnc(-c4cnc5ccccc5c4)n3)cc21 [17_3 Formula (XVI)]
–	–	–	–	0.316 µM	O=C1NCC2(CCCC2)c2[nH]c(-c3ccnc(-c4cccc(F)c4)n3)cc21 [17_4 Formula (XVI)]

Source: US8772286B2, “MK2 inhibitors” (Merck Sharp & Dohme B.V., priority 2009, dated 2014)
